Measurements published in paper PMC6273036, “N-Alkoxyphenylhydroxynaphthalenecarboxamides and Their Antimycobacterial Activity” (Molecules, 2016).
≈ marks a conversion by molar mass, not a printed value.

Tests used:
[1] = test system: Mycobacterium tuberculosis H37Ra ATCC 25177; assay: In vitro antimycobacterial evaluation (alamarBlue, MIC) against M. tuberculosis; assay type: cell-based; details: 168 h, M. tuberculosis H37Ra ATCC 25177, MIC = 90% or greater (IC90) reduction of growth, 7 days
Protocol: The evaluation of the in vitro antimycobacterial activity of the compounds was performed against Mycobacterium tuberculosis H37Ra ATCC 25177 (MT), M. kansasii DSM 44162 (MK) and M. smegmatis ATCC 700084 (MS), see Table 1. To lower risk and make manipulation in the laboratory easier, surrogate model pathogens for M. tuberculosis can be used in laboratory studies. Avirulent M. tuberculosis strain H37Ra is very closely related to and has similar pathology as human-infecting M. tuberculosis strains, making it a good model for study especially because of the lower risk for laboratory workers. M. kansasii, the most virulent of the NTM, causes nontuberculous mycobacterial lung infections, which are now very common, and can be indistinguishable from tuberculosis. M. smegmatis is an ideal representative of a fast-growing nonpathogenic microorganism, particularly useful in studying basic cellular processes of special relevance to pathogenic mycobacteria. Therefore additionally M. kansasii and M. smegmatis were chosen as model species for screening of prospective antimycobacterial drugs to control mycobacterial diseases. The potency of the compounds was expressed as the minimum inhibitory concentration (MIC) that is defined for mycobacteria as 90% or greater (IC90) reduction of growth in comparison with the control.
Mycobacterium tuberculosis H37Ra ATCC 25177 was grown in Middlebrook broth (MB), supplemented with Oleic-Albumin-Dextrose-Catalase (OADC) supplement (Becton, Dickinson & Comp., Franklin Lakes, NJ, USA) and mycobactin J (2 μg/mL). At log phase growth, a culture sample (10 mL) was centrifuged at 15,000 rpm/20 min using a bench top centrifuge (Model CR 4-12, Jouan Inc., Winchester, VA, USA). Following the removal of the supernatant, the pellet was washed in fresh Middlebrook 7H9GC broth and re-suspended in fresh, ODAC-supplemented MB (10 mL). The turbidity was adjusted to match McFarland standard No. 1 (3 × 10^8 cfu) with MB broth. A further 1:20 dilution of the culture was then performed in MB broth. The antimicrobial susceptibility of M. tuberculosis was investigated in a 96-well plate format. In these experiments, sterile deionised water (300 µL) was added to all outer-perimeter wells of the plates to minimize evaporation of the medium in the test wells during incubation. Each evaluated compound (100 µL) was incubated with M. tuberculosis (100 µL). Dilutions of each compound were prepared in duplicate. For all synthesized compounds, final concentrations ranged from 1000 μg/mL to 8 μg/mL. All compounds were dissolved in DMSO, and subsequent dilutions were made in supplemented MB. The plates were sealed with parafilm and incubated at 37 °C for 7 days. Following incubation, a 10% addition of alamarBlue (AbD Serotec, Kidlington, UK) was mixed into each well, and readings at 570 nm and 600 nm were taken, initially for background subtraction and subsequently after 24 h re-incubation. The background subtraction is necessary for strongly coloured compounds, where the colour may interfere with the interpretation of any colour change. For non-interfering compounds, a blue colour in the well was interpreted as the absence of growth, and a pink colour was scored as growth.
The minimum inhibitory concentration (MIC) was defined as the lowest concentration of the compound at which no visible bacterial growth was observed, i.e., the MIC is the lowest concentration that prevented a visual colour change from blue to pink. MIC is defined for mycobacteria as 90% or greater (IC90) reduction of growth in comparison with the control. The MIC/IC90 value is routinely and widely used in bacterial assays and is a standard detection limit according to the Clinical and Laboratory Standards Institute (CLSI, www.clsi.org). Rifampicin and isoniazid (Sigma-Aldrich) were used as the standards as they are clinically used antimycobacterial drugs.

[2] = test system: Mycobacterium kansasii DSM 44162; assay: In vitro antimycobacterial evaluation (broth dilution micro-method, MIC) against M. kansasii; assay type: cell-based; details: DSM44162, 168 h, M. kansasii DSM 44162, MIC = IC90, 7 days incubation, visual
[3] = test system: human monocytic leukemia THP-1 cells; assay: In vitro antiproliferative assay (WST-1); details: THP-1, 24 h, read-out: IC50 (antiproliferative activity)
Protocol: Human monocytic leukemia THP-1 cells were used for in vitro antiproliferative assay. Cells were obtained from the European Collection of Cell Cultures (ECACC, Salisbury, UK) and routinely cultured in RPMI 1640 medium supplemented with 10% fetal bovine serum, 2% L-glutamine, 1% penicillin and streptomycin at 37 °C with 5% CO2. Cells were passaged at approximately one-week intervals. Antiproliferative activity of the compounds was determined using a Water Soluble Tetrazolium Salts-1 (WST-1, 2-(4-iodophenyl)-3-(4-nitrophenyl)-5-(2,4-disulfophenyl)-2H-tetrazolium) assay kit (Roche Diagnostics, Mannheim, Germany) according to the manufacturer’s instructions. The tested compounds were dissolved in DMSO and added in five increasing concentrations (0.37, 1.1, 3.3, 10 and 30 μM) to the cell suspension in the culture RPMI 1640 medium. The maximum concentration of DMSO in the assays never exceeded 0.1%. Subsequently, the cells were incubated for 24 h at 37 °C with 5% CO2. For WST-1 assays, cells were seeded into 96-well plates (5 × 10^4 cells/well in 100 μL culture medium) in triplicate in serum-free RPMI 1640 medium, and measurements were taken 24 h after the treatment with the compounds. The median inhibition concentration values, IC50, were deduced through the production of a dose-response curve. All data were evaluated using GraphPad Prism 5.00 software (GraphPad Software, San Diego, CA, USA).

M. smegmatis ATCC 700084 = assay: In vitro antimycobacterial evaluation (broth dilution micro-method, MIC) against M. smegmatis; assay type: cell-based; details: Mycolicibacterium smegmatis, ATCC700084, 72 h; Mycobacterium smegmatis ATCC 700084; MIC = IC90; 3 days incubation, visual

Compound	MIC [1]	MIC [2]	IC50 [3]	MIC (M. smegmatis ATCC 700084)
O=C(Nc1ccccc1)c1c(O)ccc2ccccc12 [Compound 1, 2-Hydroxy-N-phenylnaphthalene-1-carboxamide]	94 µM (≈ 24.7 µg/mL)	15 µM (≈ 3.95 µg/mL)	> 30 µM	–
COc1ccccc1NC(=O)c1c(O)ccc2ccccc12 [Compound 2a, 2-hydroxy-N-(2-methoxyphenyl)naphtha-lene-1-carboxamide]	852 µM (≈ 250 µg/mL)	873 µM (≈ 256 µg/mL)	–	873 µM (≈ 256 µg/mL)
COc1cccc(NC(=O)c2c(O)ccc3ccccc23)c1 [Compound 2b, 2-hydroxy-N-(3-methoxyphenyl)naphthalene-1-carboxamide]	852 µM (≈ 250 µg/mL)	–	–	–
COc1ccc(NC(=O)c2c(O)ccc3ccccc23)cc1 [Compound 2c, 2-hydroxy-N-(4-methoxyphenyl)naphthalene-1-carboxamide]	852 µM (≈ 250 µg/mL)	–	–	–
CCOc1cccc(NC(=O)c2c(O)ccc3ccccc23)c1 [Compound 3b, N-(3-Ethoxyphenyl)-2-hydroxynaphthalene-1-carboxamide]	813 µM (≈ 250 µg/mL)	208 µM (≈ 63.9 µg/mL)	–	416 µM (≈ 128 µg/mL)
CCCOc1ccccc1NC(=O)c1c(O)ccc2ccccc12 [Compound 4a, 2-Hydroxy-N-(2-propoxyphenyl)naphthalene-1-carboxamide]	37 µM (≈ 11.9 µg/mL)	99 µM (≈ 31.8 µg/mL)	> 30 µM	796 µM (≈ 256 µg/mL)
CCCOc1cccc(NC(=O)c2c(O)ccc3ccccc23)c1 [Compound 4b, 2-Hydroxy-N-(3-propoxyphenyl)naphthalene-1-carboxamide]	46 µM (≈ 14.8 µg/mL)	199 µM (≈ 64 µg/mL)	8.97 ± 0.34 µM	398 µM (≈ 128 µg/mL)
CCCCOc1ccccc1NC(=O)c1c(O)ccc2ccccc12 [Compound 5a, N-(2-Butoxyphenyl)-2-hydroxynaphthalene-1-carboxamide]	745 µM (≈ 250 µg/mL)	763 µM (≈ 256 µg/mL)	> 30 µM	763 µM (≈ 256 µg/mL)
CCCCOc1ccc(NC(=O)c2c(O)ccc3ccccc23)cc1 [Compound 5c, N-(4-Butoxyphenyl)-2-hydroxynaphthalene-1-carboxamide]	745 µM (≈ 250 µg/mL)	95 µM (≈ 31.9 µg/mL)	> 30 µM	763 µM (≈ 256 µg/mL)
CC(C)Oc1ccccc1NC(=O)c1c(O)ccc2ccccc12 [Compound 6a, 2-Hydroxy-N-[2-(prop-2-yloxy)phenyl]naphthalene-1-carboxamide]	31 µM (≈ 9.96 µg/mL)	99 µM (≈ 31.8 µg/mL)	> 30 µM	796 µM (≈ 256 µg/mL)
CC(C)Oc1cccc(NC(=O)c2c(O)ccc3ccccc23)c1 [Compound 6b, 2-Hydroxy-N-[3-(prop-2-yloxy)phenyl]naphthalene-1-carboxamide]	778 µM (≈ 250 µg/mL)	199 µM (≈ 64 µg/mL)	8.84 ± 0.22 µM	398 µM (≈ 128 µg/mL)
CCC(C)Oc1ccccc1NC(=O)c1c(O)ccc2ccccc12 (centres unmarked) [Compound 7a, N-[2-(But-2-yloxy)phenyl]-2-hydroxynaphthalene-1-carboxamide]	44 µM (≈ 14.8 µg/mL)	95 µM (≈ 31.9 µg/mL)	8.35 ± 1.25 µM	763 µM (≈ 256 µg/mL)
O=C(Nc1ccccc1)c1ccc2ccccc2c1O [Compound 8, 1-Hydroxy-N-phenylnaphthalene-2-carboxamide]	97 µM (≈ 25.5 µg/mL)	15 µM (≈ 3.95 µg/mL)	> 30 µM	243 µM (≈ 64 µg/mL)
COc1ccccc1NC(=O)c1ccc2ccccc2c1O [Compound 9a, 1-hydroxy-N-(2-methoxyphenyl)naphtha-lene-2-carboxamide]	852 µM (≈ 250 µg/mL)	873 µM (≈ 256 µg/mL)	–	873 µM (≈ 256 µg/mL)
COc1cccc(NC(=O)c2ccc3ccccc3c2O)c1 [Compound 9b, 1-hydroxy-N-(3-methoxyphenyl)naphthalene-2-carboxamide]	852 µM (≈ 250 µg/mL)	873 µM (≈ 256 µg/mL)	–	873 µM (≈ 256 µg/mL)
COc1ccc(NC(=O)c2ccc3ccccc3c2O)cc1 [Compound 9c, 1-hydroxy-N-(4-methoxyphenyl)naphthalene-2-carboxamide]	852 µM (≈ 250 µg/mL)	873 µM (≈ 256 µg/mL)	–	873 µM (≈ 256 µg/mL)
CCOc1ccccc1NC(=O)c1ccc2ccccc2c1O [Compound 10a, N-(2-Ethoxyphenyl)-1-hydroxynaphthalene-2-carboxamide]	813 µM (≈ 250 µg/mL)	832 µM (≈ 256 µg/mL)	–	832 µM (≈ 256 µg/mL)
CCOc1cccc(NC(=O)c2ccc3ccccc3c2O)c1 [Compound 10b, N-(3-Ethoxyphenyl)-1-hydroxynaphthalene-2-carboxamide]	813 µM (≈ 250 µg/mL)	52 µM (≈ 16 µg/mL)	3.02 ± 0.96 µM	832 µM (≈ 256 µg/mL)
CCOc1ccc(NC(=O)c2ccc3ccccc3c2O)cc1 [Compound 10c, N-(4-Ethoxyphenyl)-1-hydroxynaphthalene-2-carboxamide]	813 µM (≈ 250 µg/mL)	832 µM (≈ 256 µg/mL)	–	832 µM (≈ 256 µg/mL)
CCCOc1ccccc1NC(=O)c1ccc2ccccc2c1O [Compound 11a, 1-Hydroxy-N-(2-propoxyphenyl)naphthalene-2-carboxamide]	778 µM (≈ 250 µg/mL)	24 µM (≈ 7.71 µg/mL)	–	796 µM (≈ 256 µg/mL)
CCCOc1ccc(NC(=O)c2ccc3ccccc3c2O)cc1 [Compound 11c, 1-Hydroxy-N-(4-propoxyphenyl)naphthalene-2-carboxamide]	778 µM (≈ 250 µg/mL)	24 µM (≈ 7.71 µg/mL)	> 30 µM	796 µM (≈ 256 µg/mL)
CCCCOc1ccccc1NC(=O)c1ccc2ccccc2c1O [Compound 12a, N-(2-Butoxyphenyl)-1-hydroxynaphthalene-2-carboxamide]	745 µM (≈ 250 µg/mL)	763 µM (≈ 256 µg/mL)	–	763 µM (≈ 256 µg/mL)
CCCCOc1ccc(NC(=O)c2ccc3ccccc3c2O)cc1 [Compound 12c, N-(4-Butoxyphenyl)-1-hydroxynaphthalene-2-carboxamide]	745 µM (≈ 250 µg/mL)	23 µM (≈ 7.71 µg/mL)	> 30 µM	763 µM (≈ 256 µg/mL)
CC(C)Oc1ccccc1NC(=O)c1ccc2ccccc2c1O [Compound 13a, 1-Hydroxy-N-[2-(prop-2-yloxy)phenyl]naphthalene-2-carboxamide]	778 µM (≈ 250 µg/mL)	796 µM (≈ 256 µg/mL)	–	796 µM (≈ 256 µg/mL)
CC(C)Oc1cccc(NC(=O)c2ccc3ccccc3c2O)c1 [Compound 13b, 1-Hydroxy-N-[3-(prop-2-yloxy)phenyl]naphthalene-2-carboxamide]	389 µM (≈ 125 µg/mL)	796 µM (≈ 256 µg/mL)	4.32 ± 0.74 µM	796 µM (≈ 256 µg/mL)
CC(C)Oc1ccc(NC(=O)c2ccc3ccccc3c2O)cc1 [Compound 13c, 1-Hydroxy-N-[4-(prop-2-yloxy)phenyl]naphthalene-2-carboxamide]	778 µM (≈ 250 µg/mL)	49 µM (≈ 15.7 µg/mL)	9.39 ± 1.39 µM	796 µM (≈ 256 µg/mL)
CCC(C)Oc1ccccc1NC(=O)c1ccc2ccccc2c1O (centres unmarked) [Compound 14a, N-[2-(But-2-yloxy)phenyl]-1-hydroxynaphthalene-2-carboxamide]	745 µM (≈ 250 µg/mL)	47 µM (≈ 15.8 µg/mL)	9.03 ± 1.18 µM	763 µM (≈ 256 µg/mL)
CCC(C)Oc1ccc(NC(=O)c2ccc3ccccc3c2O)cc1 (centres unmarked) [Compound 14c, N-[4-(But-2-yloxy)phenyl]-1-hydroxynaphthalene-2-carboxamide]	745 µM (≈ 250 µg/mL)	23 µM (≈ 7.71 µg/mL)	3.41 ± 0.41 µM	12 µM (≈ 4.02 µg/mL)
NNC(=O)c1ccncc1 [INH, isoniazid, reference compound]	58 µM (≈ 7.95 µg/mL)	–	> 30 µM	–
CO[C@H]1/C=C/O[C@@]2(C)Oc3c(C)c(O)c4c(O)c(c(/C=N/N5CCN(C)CC5)c(O)c4c3C2=O)NC(=O)/C(C)=C\C=C\[C@H](C)[C@H](O)[C@@H](C)[C@@H](O)[C@@H](C)[C@H](OC(C)=O)[C@@H]1C [RIF, rifampicin, reference compound]	10 µM (≈ 8.23 µg/mL)	0.15 µM (≈ 0.123 µg/mL)	> 30 µM	19 µM (≈ 15.6 µg/mL)
